Reference: article PMC8045554 (Pharmacological research, 2020)

Target: PCSK9 (proprotein convertase subtilisin/kexin type-9) (Homo sapiens, UniProt Q8NBP7)
Assay: SPR with immobilized PCSK9
Assay type: binding

SMILES: CC/C=C\[C@H](O)[C@H](O)C1=C(C)C(=O)[C@]2(O1)C(=O)N[C@@](OC)(C(=O)c1ccccc1)[C@@H]2O [PS, Pseurotin A]
- Kd: 23.4 µM
